Laboratory results taken from publication PMC2854178 (Biochemistry, 2010).

Target: AFUA_6g12080 (Orf12080) module 1 C*AT (Aspergillus fumigatus, UniProt Q4WLW5)
Format: biochemical
Settings: ATP, 10 mM MgCl2, pH 7.4, 25 °C, 5 μM enzyme (apo); off-pathway acyl-AMP release

AFUA_6g12080 (Orf12080) module 1 C*AT, sequence (Q4WLW5 1-885): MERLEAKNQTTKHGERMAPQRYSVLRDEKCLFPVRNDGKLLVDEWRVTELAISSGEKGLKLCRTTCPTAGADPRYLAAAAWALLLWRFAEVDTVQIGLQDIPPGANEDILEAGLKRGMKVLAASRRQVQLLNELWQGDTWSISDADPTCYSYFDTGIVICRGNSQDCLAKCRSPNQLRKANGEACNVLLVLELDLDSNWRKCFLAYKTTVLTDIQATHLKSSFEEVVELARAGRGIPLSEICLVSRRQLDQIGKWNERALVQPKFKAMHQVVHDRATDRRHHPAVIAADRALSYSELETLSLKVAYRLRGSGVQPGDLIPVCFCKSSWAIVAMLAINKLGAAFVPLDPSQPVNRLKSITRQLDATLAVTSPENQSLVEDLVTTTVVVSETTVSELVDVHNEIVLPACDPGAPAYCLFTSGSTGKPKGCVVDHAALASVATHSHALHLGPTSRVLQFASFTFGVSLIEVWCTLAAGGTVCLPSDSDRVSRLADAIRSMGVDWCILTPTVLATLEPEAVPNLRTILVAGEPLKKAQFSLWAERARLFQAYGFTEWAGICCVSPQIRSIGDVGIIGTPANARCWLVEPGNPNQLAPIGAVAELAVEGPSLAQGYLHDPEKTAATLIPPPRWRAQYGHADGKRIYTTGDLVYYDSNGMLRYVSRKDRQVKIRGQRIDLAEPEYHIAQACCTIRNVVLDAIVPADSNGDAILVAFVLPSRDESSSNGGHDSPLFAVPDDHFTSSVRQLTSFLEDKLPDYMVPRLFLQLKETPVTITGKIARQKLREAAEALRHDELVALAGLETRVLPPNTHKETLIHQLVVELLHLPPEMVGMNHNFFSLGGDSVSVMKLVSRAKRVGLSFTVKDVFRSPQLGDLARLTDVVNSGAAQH

## Nc1ccccc1C(=O)O [anthranilic acid, 2-aminobenzoic acid]
  Km: 18 µM
